“Also recorded” adds a separate entry of the source. Structures can show the parent of a compound that is named as a salt. Values belong to the compound of their own block, whether it stands above or below them.
Experiments:
KDM1A in brain = experiment: In vivo KDM1A target engagement, brain of SAMP8 mice
Method: (§1) 8.1. Samples preparation and obtention of protein extracts from cells was performed as described in example 5. Frozen tissues were homogenized with a mortar and pestle chilled on dry ice. Powdered samples were resuspended in lysis buffer and forced through a 18 gauge blunt syringe needle to lyse the cells, proteins were then extracted as described above for cell pellets (example 5.2). Isolation of PBMCs from peripheral blood was also as described in example 5.2.
(§2) 8.2. Assay Protocol and Calculation of TE: same as Described in Example 7.1 and 7.2.
The methods of the invention have also been used to determine KDM1A target engagement in SAMP8 mice (a non-transgenic model for neurodegeneration reminiscent of Alzheimer's disease) which have been treated with the KDM1A inhibitor designated as Compound C. Compound C is the compound with chemical name (−)5-((((trans)-2-(4-(benzyloxy)phenyl)cyclopropyl)amino)methyl)-1,3,4-oxadiazol-2-amine, which is described in WO2012/013728. […] Female SAMP8 mice were treated with Compound C starting at 5 months of age and during 2 months. Mice were randomly distributed in three groups, receiving vehicle or Compound C at 0.11 mg/kg/day or 0.32 mg/kg/day, respectively. […] The dose was calculated according to the animal water consumption average per cage and adjusted weekly. […]

[1] = molecular target: human recombinant KDM1A enzyme (Homo sapiens (Human), UniProt O60341); conditions: read-out: KDM1A IC50 (biochemical assay)
Method: The ability of the chemoprobes to inhibit KDM1A was tested in vitro using the assay described below.
KDM1A inhibition assay: a multistep enzymatic reaction in which the enzyme first produces H2O2 during the demethylation of lysine 4 in a 21 AA H3K4me2 N-terminal peptide. […] After 30 min of incubation at 37° C. Amplex Red reagent and the horseradish peroxidase (HRP) solution were added according to the recommendations of the supplier (Invitrogen) and left to incubate for 5 min at room temperature in the dark. Conversion of the Amplex Red reagent to resorufin, was monitored by fluorescence (λex=540 nm, λem=590 nm) using a microplate reader (Infinite F200 Tecan). Signals were corrected for background and the IC50 value was calculated with GraphPad Prism Software.

KDM1A in PBMCs = KDM1A in PBMCs (Homo sapiens (Human), UniProt O60341); experiment: KDM1A target engagement in PBMCs of healthy volunteers (Phase I clinical study); type: in vivo; conditions: single oral dose of 1.5 mg, 12 and 72 h post-administration, 6 volunteers
Method: A Phase I clinical study has been performed to characterize the safety, tolerability, pharmacokinetics and pharmacodynamics of Compound C in healthy volunteers. The first stage of this clinical study is a randomized, double-blind, dose escalation study, in which the KDM1A inhibitor was administered as a single oral dose in capsules. Up to five different dose levels were tested in cohorts of 8 volunteers, randomized to receive either Compound C (n=6) or placebo (n=2). As part of the pharmacodynamic evaluations in this clinical study, KDM1A target engagement (TE) was assessed at pre-treatment, and 12 and 72 h after drug administration. Briefly, blood samples (10 mL) were collected in EDTA-K2 tubes from all the treated volunteers (active drug and placebo, n=8 per dose level) and PBMCs pellets obtained by density gradient centrifugation in Leucosep™ tubes and stored at −90° C. until analysis. Only PBMC samples meeting pre-established sample quality control criteria are used for the TE analysis. In particular, samples with signs of hemolysis and/or with traces of red cells are discarded.
KDM1A TE values obtained for each volunteer in the cohort of volunteers corresponding to the single dose of 1.5 mg of Compound C are shown in FIG. 11.

Human recombinant MAO-A = Human recombinant MAO-A (Homo sapiens (Human), UniProt P21397); experiment: MAO inhibition (kynuramine fluorescence assay), MAO-A; type: biochemical; conditions: kynuramine at KM, 1 h at 37° C.
Chain of Human recombinant MAO-A (P21397 whole entry): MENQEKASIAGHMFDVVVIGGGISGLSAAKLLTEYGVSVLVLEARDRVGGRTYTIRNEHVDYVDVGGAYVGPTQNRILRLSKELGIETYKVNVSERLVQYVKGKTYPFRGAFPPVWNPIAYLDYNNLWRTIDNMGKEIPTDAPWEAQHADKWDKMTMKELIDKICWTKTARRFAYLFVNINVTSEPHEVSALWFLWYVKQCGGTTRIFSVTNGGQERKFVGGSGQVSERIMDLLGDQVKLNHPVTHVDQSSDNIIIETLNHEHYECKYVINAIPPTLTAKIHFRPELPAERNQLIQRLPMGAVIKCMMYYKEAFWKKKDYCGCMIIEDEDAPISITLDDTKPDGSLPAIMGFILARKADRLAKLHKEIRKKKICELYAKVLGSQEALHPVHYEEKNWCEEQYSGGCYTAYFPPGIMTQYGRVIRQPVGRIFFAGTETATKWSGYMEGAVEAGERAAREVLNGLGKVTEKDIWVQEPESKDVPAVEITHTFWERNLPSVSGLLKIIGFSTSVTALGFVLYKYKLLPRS
Method: (§3) The target selectivity of the chemoprobes for binding FAD in KDM1A relative to other FAD containing enzymes is evaluated by testing the chemoprobes in different biochemical assays to determine its MAO-A, MAO-B, IL4I1 and SMOX inhibitory activity in vitro. All IC50 values were calculated using Graph Prism Software.
(§4) Human recombinant MAO-A and MAO-B were purchased from Sigma Aldrich (#M7316 and #M7441 respectively). Enzymatic activities and inhibition rate were analyzed in a fluorescence based assay using kynuramine (Sigma Aldrich #K3250) as a substrate. Clorgiline and Deprenyl (Sigma Aldrich #M3778 and #M003) were used as controls for specific inhibition of MAO-A and MAO-B respectively. Compounds were pre-incubated with protein for 15 min on ice in 100 mM Hepes pH 7.5. The enzymatic reaction was initiated by the addition of specific KM Kynuramine and incubated 1 h at 37° C. The reaction was stopped by adding NaOH 2N (v/v). The conversion of kynuramine to 4-hydroxyquinoline was monitored by fluorescence (λex=320 nm, λem=360 nm) using a microplate reader.

Human recombinant MAO-B = Human recombinant MAO-B (Homo sapiens (Human), UniProt P27338); experiment: MAO inhibition (kynuramine fluorescence assay), MAO-B; type: biochemical; conditions: kynuramine at KM, 1 h at 37° C.
Chain of Human recombinant MAO-B (P27338 whole entry): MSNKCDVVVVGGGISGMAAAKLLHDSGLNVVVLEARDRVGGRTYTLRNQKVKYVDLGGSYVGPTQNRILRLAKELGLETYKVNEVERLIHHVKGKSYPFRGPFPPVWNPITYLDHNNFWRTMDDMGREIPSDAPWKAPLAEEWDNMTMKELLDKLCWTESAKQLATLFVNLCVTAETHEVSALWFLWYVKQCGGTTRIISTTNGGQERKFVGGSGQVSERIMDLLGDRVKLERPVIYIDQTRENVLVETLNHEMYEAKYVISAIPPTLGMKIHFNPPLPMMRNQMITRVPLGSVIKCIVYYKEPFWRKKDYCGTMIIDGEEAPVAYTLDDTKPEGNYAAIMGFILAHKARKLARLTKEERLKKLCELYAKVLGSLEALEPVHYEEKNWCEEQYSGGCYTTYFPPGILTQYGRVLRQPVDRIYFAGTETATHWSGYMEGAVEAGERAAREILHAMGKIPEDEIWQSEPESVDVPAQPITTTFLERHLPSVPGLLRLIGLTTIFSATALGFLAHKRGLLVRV
Method: as §3, §4

[2] = molecular target: Mouse recombinant SMOX enzyme (Mus musculus (Mouse), UniProt Q99K82); experiment: SMOX inhibition (spermine oxidation, HRP/Amplex red); type: biochemical; conditions: KM spermine, 10 minutes; read-out: mSMOX IC50
Chain of Mouse recombinant SMOX enzyme (Q99K82 whole entry): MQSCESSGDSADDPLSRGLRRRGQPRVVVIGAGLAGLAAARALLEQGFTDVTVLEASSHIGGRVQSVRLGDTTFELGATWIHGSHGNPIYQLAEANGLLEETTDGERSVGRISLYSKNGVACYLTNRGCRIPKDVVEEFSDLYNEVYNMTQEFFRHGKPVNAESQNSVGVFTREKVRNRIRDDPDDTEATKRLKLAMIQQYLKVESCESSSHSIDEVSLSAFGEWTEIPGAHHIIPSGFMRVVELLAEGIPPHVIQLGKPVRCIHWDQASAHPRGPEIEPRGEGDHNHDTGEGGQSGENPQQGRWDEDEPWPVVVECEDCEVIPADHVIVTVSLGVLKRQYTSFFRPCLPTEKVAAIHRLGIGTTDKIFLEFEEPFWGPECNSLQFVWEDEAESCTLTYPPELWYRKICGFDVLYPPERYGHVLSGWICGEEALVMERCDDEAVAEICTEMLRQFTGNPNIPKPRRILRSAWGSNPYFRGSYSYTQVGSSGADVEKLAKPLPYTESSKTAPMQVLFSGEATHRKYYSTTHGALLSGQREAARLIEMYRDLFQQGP
Method: as §3
Mouse recombinant SMOX enzyme was provided by Professor Paolo Mariottini (Rome University). The biochemical activity was measured by its ability to oxidize spermine in a horseradish peroxidase coupled assay using Amplex red as a substrate. The assay buffer for mSMOX reaction was 100 mM Sodium Phosphate pH 8.0. The inhibition by tested compounds was monitored during 10 minutes in the presence of KM spermine.

hIL-4I1 = hIL-4I1 (Homo sapiens (Human), UniProt Q96RQ9); experiment: IL-4I1 inhibition (phenylalanine oxidation, HRP/Amplex red); type: biochemical
Chain of hIL-4I1 (Q96RQ9 22-567): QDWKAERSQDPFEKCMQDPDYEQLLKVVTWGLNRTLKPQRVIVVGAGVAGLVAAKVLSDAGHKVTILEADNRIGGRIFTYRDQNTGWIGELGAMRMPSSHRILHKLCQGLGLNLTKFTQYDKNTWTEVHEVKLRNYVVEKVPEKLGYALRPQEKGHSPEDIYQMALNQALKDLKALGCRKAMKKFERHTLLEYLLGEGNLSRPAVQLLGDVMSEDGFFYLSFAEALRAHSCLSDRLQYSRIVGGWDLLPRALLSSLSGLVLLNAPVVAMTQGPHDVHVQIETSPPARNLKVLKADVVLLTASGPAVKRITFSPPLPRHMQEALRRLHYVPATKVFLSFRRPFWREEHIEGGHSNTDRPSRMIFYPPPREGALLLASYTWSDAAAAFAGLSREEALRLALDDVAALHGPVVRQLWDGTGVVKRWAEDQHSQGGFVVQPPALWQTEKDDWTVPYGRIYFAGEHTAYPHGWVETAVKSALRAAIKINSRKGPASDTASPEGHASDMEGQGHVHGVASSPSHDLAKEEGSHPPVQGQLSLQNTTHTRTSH
Method: as §3
Human recombinant IL-411 was purchased from RD Systems (#5684-A0-020). The biochemical activity was measured by its ability to oxidize phenylalanine and produce H2O2 in a horseradish-peroxidase coupled assay using Amplex red as substrate.

KDM1A in MV(4;11) cells = KDM1A in MV(4;11) cells (Homo sapiens (Human), UniProt O60341); conditions: 24 h of treatment
Method: Total protein extracts were quantified and 1 ug of total protein was used to perform the target engagement analysis as described above, using the luminescent substrate.

KDM1A in THP-1 cells = KDM1A in THP-1 cells (Homo sapiens (Human), UniProt O60341); experiment: KDM1A target engagement in cells (chemoprobe luminescent ELISA), THP-1; conditions: THP-1 cells treated for 24 h, 0.25-25 nM
[3] = molecular target: KDM1A from MV(4;11) cells (Homo sapiens (Human), UniProt O60341); conditions: MV(4;11) cells pre-treated with 25 nM; chemoprobes Examples 1.4 and 1.5
Method: (§6) Tubes were incubated for 5 min on ice and briefly sonicated to achieve lysis. The resulting extracts were centrifuged 10 min at 14.000×g at 4° C. Supernatants were collected and quantified by Bradford assay (BIO-RAD; #500-0006) following manufacturer's instructions.
(§7) 350 μg of protein extracts (containing the chemoprobe) was then added and incubated for 30 min at room temperature (RT) using gentle rotation. The chemoprobe-KDM1A complex bound to the streptavidin beads was separated using a magnet and washed 4 times in PBS. After the last wash, samples were resuspended in 25 μL of 3×SDS Sample Buffer and analyzed by western blot. Samples were separated on a 10% Bis-Tris NuPAGE® Novex® Precast gel (Invitrogen; #P0301BOX) following manufacturer's instructions. Gels were transferred onto nitrocellulose membrane (GE Healthcare; #RPN303D) for immunodetection by semi-dry transfer. N-specific binding sites were blocked by incubating membranes in blocking buffer (5% non-fat dry milk in PBS-Tween 0.1%) at RT for 1 h. […] Signal was detected by enhanced chemiluminescence (ECL, Amersham, GE Healthcare; #W9643350) using a GeneGnome HR System (Syngene).

KDM1A in LNCap cells = KDM1A in LNCap cells (Homo sapiens (Human), UniProt O60341); experiment: KDM1A target engagement in cells (chemoprobe luminescent ELISA), LNCap; type: cell-based; conditions: LNCap cells treated for 24 h at 0.1, 1 and 10 nM
Method: Coating was performed at 4° C.

KDM1A in rat lung = KDM1A in rat lung (Rattus norvegicus (Rat), UniProt A0A8I6G2K8); experiment: In vivo KDM1A target engagement, ex vivo rat lung; conditions: pooled rat lung, oral gavage 4 consecutive days, 1, 3, 10 and 30 ug/kg/day
Method: as §1, §2
(§5) Four different doses were used (1, 3, 10 and 30 ug/kg/day). The KDM1A target engagement was calculated as described previously (see example 7), where RX corresponds to each condition analyzed and RREF is the sample corresponding to vehicle (non treated) rat PBMCs.

KDM1A from THP-1 cells = KDM1A from THP-1 cells (Homo sapiens (Human), UniProt O60341); conditions: pretreatment with 25 nM; chemoprobe example 1.1
Method: as §6, §7

KDM1A in rat PBMCs [4] = molecular target: T1, KDM1A in rat PBMCs (Rattus norvegicus (Rat), UniProt A0A8I6G2K8); experiment: Dynamics of KDM1A target engagement in rat pooled PBMCs; type: in vivo
Method: Obtention of proteins extracts, assay protocol and calculation of TE as described in example 8.1, 7.1 and 7.2 respectively.
PBMCs were obtained pre-dose (before starting the drug administration) and 2, 6, 24 h after the single dose administration, or pre-dose (i.e. 0 h) and 2, 6, 24, 48 and 72 h after the last drug administration in the multiple dose administration. Total and free KDM1A protein levels in PBMCs were assessed using 0.5 ug of total protein extracts. […] The KDM1A target engagement was calculated as described previously (see section 7.2)), where RX corresponds to each time-point analyzed and RREF is the sample corresponding to the pre-dose of rat PBMC.

human rKDM1A = human rKDM1A (Homo sapiens (Human), UniProt O60341); experiment: AlphaLISA detection of free KDM1A; type: binding; conditions: pretreatment of the enzyme at 5 uM; chemoprobe Example 1.6 100 nM
Method: The AlphaLISA assay detects the proximity of a first detection agent containing […] latex donor beads containing phthalocyanine that release singlet oxygen after irradiation at […] to a second detection agent containing similar sized acceptor beads containing Europium that emit a narrow peak of light at […] after absorption of singlet oxygen. The AlphaPlex assay allows detection of multiple analytes in the same assay volume and works similarly, but two acceptor beads are used (second and third detection agents) containing respectively Terbium or Samarium and emit light at 545 nM or 645 nM after absorption. Effective singlet oxygen transfer occurs when donor and acceptor beads are separated by a distance of less than 200 nm.
For example, anti-KDM1A antibody (mAb-844) was conjugated to AlphaLISA acceptor beads (Perkin Elmer #6772001) to generate a first detection agent, and anti-KDM1A antibody (mAb-825) was conjugated to AlphaLISA donor beads (Perkin Elmer #6762013) to generate a second detection agent that together form a detection system that can be used to determine total KDM1A levels. […]

KDM1A in rat PBMCs [5] = molecular target: T1, KDM1A in rat PBMCs; experiment: In vivo KDM1A target engagement, ex vivo rat PBMCs; conditions: pooled rat PBMC, oral gavage 4 consecutive days, 1, 3, 10 and 30 ug/kg/day, two hours after last administration
Method: Peripheral blood mononuclear cells (PBMCs) from rat were isolated from peripheral fresh blood collected in anticoagulant tubes for blood (K2- or K3-EDTA as the preferred anticoagulant tubes) and diluted with an equal volume of PBS, using Ficoll-Paque PLUS reagent (GE Healthcare; #17-1440-02) or Leucosep Tubes (Greiner bio-one; #227288) according to manufacturer's instructions. Cells were stained with tryptan blue and cell number and viability were determined using a Neubauer Chamber in an optical microscope. Pellets of 1·10^6 PBMCs were preserved at −80° C. The same procedure can be used for isolation of PBMCs from other resources such as human or mouse blood. In the case of human samples, preferably Leucosep procedure is used, whereas for mouse PBMCs, Ficoll procedure is preferred.
8.1. Samples preparation and obtention of protein extracts from cells was performed as described in example 5. Frozen tissues were homogenized with a mortar and pestle chilled on dry ice. […]
as §5

Compound: Nc1nnc(CN[C@@H]2C[C@H]2c2ccc(OCc3ccccc3)cc2)o1 [Compound C, (−)5-((((trans)-2-(4-(benzyloxy)phenyl)cyclopropyl)amino)methyl)-1,3,4-oxadiazol-2-amine]
- mean % KDM1A target engagement (KDM1A in brain; brain of female SAMP8 mice, 0.11 or 0.32 mg/kg/day in drinking water, 2 months): clear dose-response of KDM1A target engagement
- brain penetration (KDM1A in brain; mouse, in vivo): enters the brain; also recorded: cross the blood-brain barrier
- IC50 [1]: 0.101 µM
- KDM1A TE (KDM1A in PBMCs): Clear KDM1A target engagement

- IC50 (Human recombinant MAO-A): > 100 µM
- IC50 (Human recombinant MAO-B): > 100 µM
- IC50 [2]: 13 µM
- IC50 (hIL-4I1; KM phenylalanine, 30 minutes): > 100 µM
- inhibition at 100 µM (hIL-4I1; at 100 uM): 31%
Compound: N[C@H]1CC[C@H](N[C@@H]2C[C@H]2c2ccc(-c3cccc(CCC(=O)NCCOCCOCCOCCOCCOCCOCCOCCOCCOCCOCCOCCNC(=O)CCCC[C@@H]4SC[C@@H]5NC(=O)N[C@@H]54)c3)cc2)CC1 [Example 1.6, N-(39-(4′-((1S,2R)-2-(((trans)-4-aminocyclohexyl)amino)cyclopropyl)-[1,1′-biphenyl]-3-yl)-37-oxo-3,6,9,12,15,18,21,24,27,30,33-undecaoxa-36-azanonatriacontyl)-5-((3aS,4S,6aR)-2-oxohexahydro-1H-thieno[3,4-d]imidazol-4-yl)pentanamide dihydrochloride]

Compound: N[C@H]1CC[C@H](N[C@@H]2C[C@H]2c2ccccc2)CC1 [ORY-1001, (trans)-N1-((1R,2S)-2-phenylcyclopropyl)cyclohexane-1,4-diamine]
- % of KDM1A target engagement (KDM1A in MV(4;11) cells): dose-responsive cellular target engagement
- % of Target engagement (KDM1A in THP-1 cells): dose-responsive cellular target engagement
- effect of pre-treatment on pull-down of KDM1A by chemoprobes [3]: completely prevented pull-down of KDM1A
- KDM1A target engagement (KDM1A in LNCap cells): clear KDM1A target engagement
- KDM1A target engagement (in %) (KDM1A in rat lung): clear dose-response of KDM1A target engagement
- effect of pretreatment on pull-down of KDM1A by chemoprobe (KDM1A from THP-1 cells): completely prevented pull-down of KDM1A
- target engagement after multiple administrations versus single administration (KDM1A in rat PBMCs [4]; at the same dose level): higher than single administration
- percentage of KDM1A target engagement over time (KDM1A in rat PBMCs [4]; pooled rat PBMCs, p.o. 2.5 and 15 ug/kg/day, single dose or 5 consecutive days): clear time- and dose-response in KDM1A target engagement
- percentage of KDM1A target engagement after the last dose in absence of further treatment (KDM1A in rat PBMCs [4]; up to 72 h after the last administration): gradually decreases
- free KDM1A signal (AlphaLISA) (human rKDM1A): blocked
- KDM1A target engagement (in %) (KDM1A in rat PBMCs [5]): clear dose-response of KDM1A target engagement
